Bounds are passed on as bounds.

Broadly, the IC50 is the concentration that gives 50% inhibition.

A short description of this series: Inhibition of CYP1A2 (unknown origin).

For the compound `FC(F)(F)c1nccc2cc(Nc3n[nH]c4nccnc34)ccc12` [N-(1H-pyrazolo[3,4-b]pyrazin-3-yl)-1-(trifluoromethyl) isoquinolin-6-amine], the concentration for half-maximal inhibition (IC50) is < 500 µM.
Then `FC(F)(F)c1nccc2cc(Nc3n[nH]c4cccnc34)ccc12` [N-(1H-pyrazolo[4,3-b]pyridin-3-yl)-1-(trifluoromethyl) isoquinolin-6-amine], with < 500 µM.

The values above are taken from BindingDB's records for doi:10.1016/j.bmcl.2018.10.050 (Vanderbilt University, 2019).
